Test results reported in patent US6908947B2, “Sulfonamide-substituted fused 7-membered ring compounds, their use as a medicament, and pharmaceutical preparations comprising them” (Aventis Pharma Deutschland GmbH, priority 1997, dated 2005).

| SMILES | melting point |
| --- | --- |
| O=S(=O)(N[C@@H]1c2ccccc2CCC[C@H]1O)c1ccccc1 (relative stereo) [Example 16, trans-5-(N-Phenylsulfonylamino)-6,7,8,9-tetrahydro-5H-benzocyclohepten-6-ol] | 128 to 128.2 °C |
| Cc1ccc(S(=O)(=O)N[C@@H]2c3ccccc3CCC[C@H]2O)cc1 (relative stereo) [Example 17, trans-5-[N-(4-Methylphenyl)-sulfonylamino]-6,7,8,9-tetrahydro-5H-benzocyclo hepten-6-ol] | 124.5 to 125.1 °C |
| COc1ccc(S(=O)(=O)N[C@@H]2c3ccccc3CCC[C@H]2O)cc1 (relative stereo) [Example 18, trans-5-[N-(4-Methoxyphenyl)-sulfonylamino]-6,7,8,9-tetrahydro-5H-benzocyclohepten-6-ol] | 140 to 141 °C |
| O=S(=O)(N[C@@H]1c2ccccc2CCC[C@H]1O)c1ccc(Cl)cc1 (relative stereo) [Example 19, trans-5-[N-(4-Chlorophenyl)-sulfonylamino]-6,7,8,9-tetrahydro-5H-benzocyclohepten-6-ol] | 172 to 173 °C |
| CCc1ccc(S(=O)(=O)N[C@@H]2c3cc([N+](=O)[O-])ccc3CCC[C@H]2O)cc1 (relative stereo) [Example 20, trans-5-[N-(4-Ethylphenyl)-sulfonylamino]-3-nitro-6,7,8,9-tetrahydro-5H-benzocyclohepten-6-ol] | 159 to 161 °C |
| CN(C1CCCOc2ccccc21)S(C)(=O)=O (stereo not drawn) [Example 8, 5-(N-Methyl-N-methylsulfonylamino)-2,3,4,5-tetrahydro-1-benzoxepine] | 143 to 145 °C |
